US6673812B1, “Preventives/remedies for glaucoma” (Senju Pharmaceutical Co., Ltd., priority 1998, dated 2004)

Test system: Japanese white rabbits
Assay: Effect on normal intraocular pressure of white rabbits
Type: in vivo, rabbit
Conditions: 20 μl eye drop, 0.1% or 0.03%
Excerpt: In this experiment, 0.1% eye drop and 0.03% eye drop containing Compound A (each prepared in Example 2 and Example 3), 0.03% eye drop containing Compound B (prepared in Example 4), 0.1% eye drop and 0.03% eye drop containing Compound C (each prepared in Example 5 and Example 6) and 0.03% eye drop containing Compound D (prepared in Example 7) were used.
Japanese white rabbits (body weight about 2 kg) purchased from Japan Laboratory Animals, INC. were used. These animals were bred in a breeding chamber set to temperature 23±3° C., humidity 55±10% and fed on limited amount of 100 g a day of a solid feed (Labo R Stock, Nihon-Nosan Kogyo K.K.). They were allowed free access to tap water. The rabbits were placed in a holding box for 5 hr a day for acclimation from 2 days prior to the test. […] After measurement of the initial value of the intraocular pressure, various eye drops (20 μl) were instilled into one eye, and a base, which was one of various eye drops except the test drug, was instilled into the other eye in the same manner and taken as the control eye.
The intraocular pressure was measured with time at 30, 60, 90, 120, 150 and 180 min after instillation and thereafter at one hour intervals until the intraocular pressure returned to the initial value, and the duration of the effect was examined.

SMILES: C[C@@H](N)c1ccc(C(=O)Nc2ccnc3[nH]ccc23)cc1.Cl.Cl.O [Compound D, (R)-(+)-N-(1H-pyrrolo[2,3-b]pyridin-4-yl)-4-(1-aminoethyl)benzamide 2HCl 1H2O]
- character (onset, duration) of intraocular pressure lowering effect: marked and long lasting intraocular pressure lowering effect
